pIC50, pKd: −log10 of the molar value. Where “and” joins values, the source holds several entries; their conditions need not be identical. Equal values may be shown once.
Columns and labels:
[1] = molecular target: full-length wt-BTK enzyme (Homo sapiens (Human), UniProt Q06187); experiment: Biochemical kinase assay wt-BTK (IMAP)
Method in brief: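 IMAP fluorescence polarization assay: 1.2 nM enzyme pre-incubated 1 h with compound at room temperature, then 50 nM fluorescein-labeled MBP-derived peptide and 4 μM ATP added. Reaction ran 2 h at room temperature in the dark before quenching with IMAP binding solution.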

[2] = molecular target: full-length BTK C481S enzyme (Homo sapiens (Human), UniProt Q06187, C481S); experiment: Biochemical kinase assay BTK C481S (IMAP)
full-length BTK C481S enzyme, sequence (Q06187 whole entry C481S): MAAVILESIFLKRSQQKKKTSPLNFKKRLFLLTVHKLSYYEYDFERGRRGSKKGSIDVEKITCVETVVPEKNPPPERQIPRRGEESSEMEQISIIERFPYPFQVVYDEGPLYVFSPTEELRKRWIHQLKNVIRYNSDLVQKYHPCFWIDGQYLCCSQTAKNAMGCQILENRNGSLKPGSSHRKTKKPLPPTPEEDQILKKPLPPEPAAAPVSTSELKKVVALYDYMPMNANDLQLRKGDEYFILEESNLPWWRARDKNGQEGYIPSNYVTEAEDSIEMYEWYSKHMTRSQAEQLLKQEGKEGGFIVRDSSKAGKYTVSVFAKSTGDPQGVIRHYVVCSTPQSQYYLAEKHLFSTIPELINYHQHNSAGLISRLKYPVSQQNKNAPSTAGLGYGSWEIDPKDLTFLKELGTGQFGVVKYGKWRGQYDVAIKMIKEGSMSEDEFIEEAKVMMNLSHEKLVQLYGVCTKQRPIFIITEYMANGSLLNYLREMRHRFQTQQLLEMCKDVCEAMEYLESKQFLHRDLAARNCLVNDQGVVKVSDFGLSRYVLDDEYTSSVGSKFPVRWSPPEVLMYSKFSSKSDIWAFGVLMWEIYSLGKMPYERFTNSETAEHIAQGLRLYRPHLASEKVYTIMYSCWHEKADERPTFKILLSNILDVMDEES
Method in brief: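 Full-length BTK C481S (1.2 nM) was pre-incubated with compound for 1 h at room temperature in the dark, then reacted with fluorescein-labelled MBP-derived peptide (50 nM) and ATP (7 μM) for 2 h. Reactions were quenched with IMAP binding solution, and IC50 values were derived from fluorescence polarization.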

[3] = tested on: wt-REC-1 mantle cell lymphoma cells; experiment: Cell proliferation assay wt-REC-1 (ATPlite, 72 hours); assay type: cell-based; settings: 72 h; read-out: IC50 wt-REC-1
Method in brief: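 Luminescent viability read over 72 h, start-of-incubation signal recorded separately to separate growth from cell death. Percentage growth referenced to compound-free 0.3% DMSO wells; IC50 from 4-parameter logistic fit.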

REC-1 T474I cell lines = experiment: Cell proliferation assay REC-1 BTK T474I knock-in cells (ATPlite, 72 hours); assay type: cell-based; settings: Homo sapiens, Rec1; 72 hours; read-out: IC50 REC-1 T474I
Method in brief: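 REC-1 cells carrying CRISPR knock-in mutant BTK, single-cell cloned and sequence-confirmed, were exposed to compound for 72 h and read by ATPlite luminescence. Percentage growth was calculated against the signal at the start of incubation and against untreated 0.3% DMSO wells as maximum growth.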

wt-BTK = wt-BTK (Homo sapiens (Human), UniProt Q06187); experiment: Binding kinetics measurements (Surface Plasmon Resonance) on wt-BTK; settings: for pKd: binding affinity by Surface Plasmon Resonance (SPR); for Tau (h) wt-BTK (Act): target residence time, SPR; for target residence time on wild-type-BTK: result in words
wt-BTK, sequence (Q06187 whole entry): as the sequence (Q06187 whole entry C481S) above, with S481C counted along it
Method in brief: (§1)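 SPR on biotinylated wild-type or mutant human BTK captured on streptavidin chips (immobilized at 4° C, assay at 22° C), buffer with 1% DMSO, 30 μl/min. Single-cycle kinetics, five injections of 3.16-316 nM compound; double-referenced sensorgrams fitted (two-state model for induced fit), duplicate ka, kd, KD geometrically averaged.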

BTK T316A = BTK T316A (Homo sapiens (Human), UniProt Q06187, T316A); experiment: Binding kinetics measurements (Surface Plasmon Resonance) on BTK T316A; settings: for pKd: binding affinity by Surface Plasmon Resonance (SPR); for Tau (h) BTK T316A (Act): target residence time, SPR; for target residence time on BTK T316 mutants: result in words
BTK T316A, sequence (Q06187 whole entry T316A): as the sequence (Q06187 whole entry C481S) above, with T316A, S481C counted along it
Procedure: (§2) Binding kinetics measurements on wt-BTK, BTK […], BTK […], BTK […] and BTK […] (Surface Plasmon Resonance) Streptavidin-coated chips (Cat. No. BR100531), disposables and maintenance kits for Biacore were purchased from Cytiva (Eindhoven, The Netherlands). […] Remaining streptavidin was blocked with biocytin. Immobilization was performed at 4° C. Subsequent assay steps were conducted at 22° C. After changing buffer to Biacore buffer with 1% (v/v) dimethylsulfoxide (DMSO), a pre-run was performed for a period of at least 30 min at a flow rate of 30 μl/min to obtain a stable surface. The kinetic constants of the compounds were determined with single cycle kinetics with five consecutive injections with an increasing compound concentration with ranges of 3.16-316 nM. […] To circumvent problems of mass transport limitation, a flow rate of 30 μl/min was used. A blank run with the same conditions was performed before the compound was injected. The SPR sensorgrams were analyzed with Biacore Evaluation Software by using a method of double referencing. First the reference channel was subtracted from the channel containing immobilized protein. Subsequently, the reference curve obtained with buffer injections was subtracted. […] Compounds that bound according to an induced fit model were fitted with a two-state reaction model. The kinetic constants (ka, […], KD) of duplicates were geometrically averaged. […] Target residence for an induced fit model was calculated as described (Tummino and Copeland, 2008).

BTK T474I = BTK T474I (Homo sapiens (Human), UniProt Q06187, T474I); experiment: Binding kinetics measurements (Surface Plasmon Resonance) on BTK T474I; settings: for pKd: binding affinity by Surface Plasmon Resonance (SPR); for Tau (h) BTK T474I (Act): target residence time, SPR; for target residence time on BTK T474 mutants (T474I): result in words
BTK T474I, sequence (Q06187 whole entry T474I): as the sequence (Q06187 whole entry C481S) above, with T474I, S481C counted along it
Method in brief: as §1

BTK T474S = BTK T474S (Homo sapiens (Human), UniProt Q06187, T474S); experiment: Binding kinetics measurements (Surface Plasmon Resonance) on BTK T474S; settings: for residence time: SPR binding kinetics, BTK T474S, read-out: Tau (h) BTK T474S (Act), target residence time (converted); for pKd: binding affinity by Surface Plasmon Resonance (SPR); for target residence time on BTK T474 mutants (T474S): result in words
BTK T474S, sequence (Q06187 whole entry T474S): as the sequence (Q06187 whole entry C481S) above, with T474S, S481C counted along it
Procedure: as §2

[4] = tested on: wt-TMD8 diffuse large B-cell lymphoma cells; experiment: Cell proliferation assay wt-TMD8 (ATPlite, 120 hours); assay type: cell-based; settings: B-cell; wt-TMD8 cells, 120 hours, ATPlite; read-out: IC50 wt-TMD8
Method in brief: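 wt-TMD8 DLBCL cells, 1600 per well in RPMI-1640 with 10% FBS, rested ≥5 h then exposed to compound for 120 h at 37° C, 5% CO2. Viability read by ATPlite luminescence; percentage growth calculated relative to start-of-incubation signal and untreated 0.3% DMSO maximum growth.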

BTK C481S = BTK C481S (Homo sapiens (Human), UniProt Q06187, C481S); experiment: Binding kinetics measurements (Surface Plasmon Resonance) on BTK C481S; settings: for pKd: binding affinity by Surface Plasmon Resonance (SPR); for Tau (h) BTK C418S (Act): target residence time for BTK C481S, SPR; for target residence time on BTK C481 mutants: result in words
BTK C481S, sequence (Q06187 whole entry C481S): as the sequence (Q06187 whole entry C481S) above
Procedure: as §2

full-length wt-BTK enzyme, sequence (Q06187 whole entry): as the sequence (Q06187 whole entry C481S) above, with S481C counted along it

SMILES	pIC50 [1]	pIC50 [2]	pIC50 [3]	pIC50 (REC-1 T474I cell lines)	pKd (wt-BTK)	Tau (h) wt-BTK (Act) (wt-BTK)	pKd (BTK T316A)	Tau (h) BTK T316A (Act) (BTK T316A)	pKd (BTK T474I)	Tau (h) BTK T474I (Act) (BTK T474I)	residence time (BTK T474S)	pKd (BTK T474S)	pIC50 [4]	pKd (BTK C481S)	Tau (h) BTK C418S (Act) (BTK C481S)	target residence time on wild-type-BTK (wt-BTK)	target residence time on BTK C481 mutants (BTK C481S)	target residence time on BTK T316 mutants (BTK T316A)	target residence time on BTK T474 mutants (T474I) (BTK T474I)	target residence time on BTK T474 mutants (T474S) (BTK T474S)
Nc1ncc2c3c1c(-c1ccc(C(=O)Nc4cc(C(F)(F)F)ccn4)cc1)nn3[C@@H]1CCC[C@H](C1)NC(=O)CCCC[C@H](O)/C=C/2 [Example 11]	> 8.30	> 8.30	> 7.00	6.30 to 7.00	> 8.30	5.48 h	> 8.30	6.42 h	> 8.70	1.93 h	4.3 h	> 8.52	> 7.00	–	–	–	–	–	–	–
Nc1ncc2c3c1c(-c1ccc(C(=O)Nc4cc(C(F)(F)F)ccn4)cc1)nn3[C@@H]1CCC[C@H](C1)NC(=O)COCCC/C=C/2 [Example 18]	> 8.30	> 8.30	> 7.00	> 7.00	> 8.30	4.53 h	> 8.30	4.74 h	> 8.70	0.63 h	5.15 h	> 8.52	> 7.00	–	–	–	–	–	–	–
Nc1ncc2c3c1c(-c1ccc(C(=O)Nc4ccccn4)cc1)nn3[C@@H]1CCC[C@H](C1)NC(=O)CCCCC/C=C/2 [Example 24]	–	–	–	–	> 8.30	–	> 8.30	–	> 8.70	–	–	> 8.52	–	> 8.30	–	–	–	–	–	–
C[C@@H]1CC(=O)N[C@@H]2CCC[C@H](C2)n2nc(-c3ccc(C(=O)Nc4cc(C(F)(F)F)ccn4)cc3)c3c(N)ncc(c32)/C=C/CCN1C [Example 40]	> 8.30	> 8.30	> 7.00	> 7.00	> 8.30	6.49 h	> 8.30	2.16 h	> 8.70	0.85 h	8.38 h	> 8.52	> 7.00	–	–	–	–	–	–	–
Nc1ncc2n3c(nc(-c4ccc(C(=O)Nc5cc(C(F)(F)F)ccn5)cc4)c13)C1CCC[C@H](C1)NC(=O)CCC/C=C\C2 [Example 133b]	–	–	> 7.00	–	–	4.39 h	–	1.96 h	–	–	3.12 h	–	> 7.00	–	7.08 h	–	–	–	–	–
Nc1ncc2n3c(nc(-c4ccc(C(=O)Nc5cc(C(F)(F)F)ccn5)cc4)c13)[C@@H]1CCC[C@H](C1)NC(=O)CCC/C=C\C2 [Example 133b]	> 8.30	> 8.30	–	–	> 8.30	–	> 8.30	–	> 8.70	–	–	> 8.52	–	> 8.30	–	–	–	–	–	–
C[C@H]1CC(=O)N[C@@H]2CCC[C@H](C2)n2nc(-c3ccc(C(=O)Nc4cc(C(F)(F)F)ccn4)cc3)c3c(N)ncc(c32)/C=C/CCO1 [Example 156]	> 8.30	> 8.30	> 7.00	> 7.00	–	–	–	1.05 h	7.30 to 8.00 and > 8.30	–	1.06 h	> 8.52	> 7.00	–	–	–	–	–	–	–
C[C@@H]1CC(=O)N[C@@H]2CC[C@H](C2)n2nc(-c3ccc(C(=O)Nc4cc(C(F)(F)F)ccn4)cc3)c3c(N)ncc(c32)/C=C/CCN1 [Example 175]	> 8.30	> 8.30	> 7.00	6.30 to 7.00	–	–	–	3.51 h	–	1.31 h	1.14 h	–	> 7.00	> 8.30	4.68 h	–	–	–	–	–
C[C@@H]1C[C@@H](C)n2nc(-c3ccc(C(=O)Nc4cc(C(F)(F)F)ccn4)cc3)c3c(N)ncc(c32)/C=C/COCCC(=O)N1 [Example 176]	> 8.30	> 8.30	> 7.00	> 7.00	–	3.13 h	–	5.38 h	–	1.94 h	1.95 h	–	> 7.00	–	–	–	–	–	–	–
C[C@H]1CN(C2COC2)CCN1c1ccc(Nc2cc(-c3ccnc(N4CCn5c(cc6c5CC(C)(C)C6)C4=O)c3CO)cn(C)c2=O)nc1 [fenebrutinib, reference compound]	–	–	–	–	–	0.29 h	–	0.03 h	–	0.19 h	0.93 h	–	–	–	0.08 h	short target residence times	short target residence times	short target residence times	short target residence times	short target residence times
NC(=O)[C@H]1CCN(c2ncnc(N)c2F)C[C@@H]1N1CCC[C@@H](Nc2cc(Cl)cc(C(F)(F)F)c2)C1=O [vecabrutinib, reference compound]	–	–	–	–	–	0.18 h	–	0.05 h	–	0.01 h	0.07 h	–	–	–	0.12 h	short target residence times	short target residence times	short target residence times	short target residence times	short target residence times
